How the values were obtained:
HEK-293 cells = experiment: Cytotoxicity on cell growth, MTT test; type: cell-based, human; conditions: 72 hours; for harmlessness / toxicity on HEK-293 cells: cells expressing or not ABCG2
Protocol: The cells are seeded (10 000 cells/well) in 96-well plates and incubated for 24 hours at 37° C. under 5% CO2. Varied concentrations of mitoxantrone (from 0 to 20 μM in a constant final volume of 100 μL) are then added with an equal volume of each of the test compounds. The cells are then left to divide for 72 hours. The cytotoxicity is evaluated colorimetrically with 3-(4,5-dimethylthiazol-2-yl)-2,5-diphenyltetrazolium bromide (MTT).
Increasing concentrations of compound (IA.2) are applied to HEK-293 cells expressing or not expressing ABCG2, and whose residual vitality is evaluated after 72 hours of treatment by an MTT test. The results are illustrated in FIG. 4, in which the cells expressing ABCG2 are represented by empty circles, and those not expressing it by solid circles. […] This absence of toxicity is observed even at a very high concentration such as 40 μM, which corresponds to 40 times the IC50 value.
(§1) Increasing concentrations of compound (IA.1) are applied to HEK-293 cells expressing or not expressing ABCG2, and whose residual vitality is evaluated after 72 hours of treatment by an MTT test. The results are illustrated in FIG. 6, in which the cells expressing ABCG2 are represented by empty circles, and those not expressing it by solid circles.
as §1, with “(IB.1)” for “(IA.1)”, “8,” for “6,”, “circles” for “circles,”
as §1, with “(IB.11)” for “(IA.1)”, “10,” for “6,”

P-gp/ABCB1 = target: T1, P-gp/ABCB1 (Homo sapiens, UniProt P08183); experiment: Flow cytometry: mitoxantrone efflux induced by ABCB1 in transfected NIH3T3 cells; type: cell-based; conditions: for inhibition at 2 μM / inhibition at 10 μM: human, NIH3T3 cells transfected with ABCB1 (vector pHaMDR1/A), probe mitoxantrone (5 μM); for inhibition at 2 μM: 2 μM compound, read-out: P-gp/ABCB1 % efficacy 2 μM; for inhibition at 10 μM: 10 μM compound, read-out: P-gp/ABCB1 % efficacy 10 μM
T1 construct: expressed in transfected cells; host or cells: NIH3T3 transfected with pHaMDR1/A
From the text: Cell cultures. The human […] HEK-293 transfected with the vector pcDNA3.1 including or not the gene encoding ABCG2 (Robey, R. W., Honjo, Y., Morisaki, K., Nadjem, T. A., Runge, S., Risbood, M., Poruchynsky, M. S., Bates, S. E. 2003, Br. J. Cancer 89(10) 1971-1978) was used to test the efficacy of the products on ABCG2. The newborn hamster kidney cell line BHK21 either natural (negative control) or transfected with the vector pNUT-MRP/His expressing the gene encoding ABCC1 (Chang, Xiu-Bao, Hou, Yue-Xian, Riordan, John R. 1997, J. Biol. Chem. 272(49) 30962-30968) was used to test the efficacy of the products on ABCC1. The cell line NIH3T3 natural or transfected with the vector pHaMDR1/A expressing ABCB1 (Cardarelli, Carol O., Aksentijevich, Ivan, Pastan, Ira, Gottesman, Michael M. 1995 Cancer Res. 55 1086-1091) was used to test the efficacy of the compounds on ABCB1. The various cell types are cultured according to the protocols described previously (Robey, R. W., Honjo, Y., Morisaki, K., Nadjem, T. A., Runge, S., Risbood, M., Poruchynsky, M. S., Bates, S. E. 2003, Br. J. Cancer 89(10) 1971-1978 for the line HEK293, Chang, Xiu-Bao, Hou, Yue-Xian, Riordan, John R. 1997, J. Biol. Chem. 272(49) 30962-30968 for the line BHK21 and Cardarelli, Carol O., Aksentijevich, Ivan, Pastan, Ira, Gottesman, Michael M. 1995 Cancer Res. 55 1086-1091 for the line NIH3T3).
FIG. 1 schematically illustrates an efflux of substrate induced by a typical ABC transporter. The substrates S, such as mitoxantrone effluxed with ABCG2 and ABCB1 or daunorubicin effluxed with ABCC1, are accumulated in the cells and expelled by the transporter T, leading to a decrease in intracellular fluorescence. In the case of accumulation of the product, typically by inhibition of the efflux protein, the intracellular fluorescence increases.
Flow cytometry. Transfected or untransfected HEK-293 and BHK-21 cells are in a first stage placed in contact with substrate (5 μM mitoxantrone or 1 μM daunorubicin depending on the transporter). The substrate is accumulated for 30 minutes at 37° C. in the presence or absence of varied concentrations of the test molecules, at 0.5% of DMSO final. After washing with PBS, the cells are incubated in medium containing the same concentrations of test molecules as previously, for 1 hour at 37° C. The drug intracellular fluorescence is measured with a FACscan flow cytometer (Becton Dickinson, Mountain View, Calif.). The fluorescent substrates are excited at 488 nm; the fluorescence emission of mitoxantrone (MTX) is measured at 650 nm and that of daunorubicin is measured at 530 nm. The efficacy of the test molecules is estimated by means of equation 1:
% efficacy=100×(FA−FBG)/(FC−FBG),
in which: • FA corresponds to the intracellular level of substrate measured in the cells overexpressing the transporter T (corresponding to the lowest level of fluorescence in the absence of inhibitor), • FC corresponds to the fluorescence in the control cells not expressing the test transporter. This is thus the maximum accumulation of substrate in the cells), • FBG corresponds to the fluorescence measured in the absence of substrate and in the presence of inhibitor.
The compounds presented in TABLES 2 to 5 were tested by flow cytometry on mammalian cell lines selectively expressing the efflux proteins ABCG2, ABCB1 or ABCC1, as described previously.
The mitoxantrone efflux induced by ABCG2 or ABCB1 and the daunorubicin efflux induced by ABCC1 are estimated by flow cytometry, as described previously, at 10 μM of each test compound, and then at 2 μM for the compounds showing at least 80% efficacy at 10 μM. The concentration inducing 50% inhibition (IC50) was estimated for the most efficient aza derivatives. The values are obtained by three independent experiments and were adjusted using the SigmaPlot software.

T1 sequence (P08183 whole entry): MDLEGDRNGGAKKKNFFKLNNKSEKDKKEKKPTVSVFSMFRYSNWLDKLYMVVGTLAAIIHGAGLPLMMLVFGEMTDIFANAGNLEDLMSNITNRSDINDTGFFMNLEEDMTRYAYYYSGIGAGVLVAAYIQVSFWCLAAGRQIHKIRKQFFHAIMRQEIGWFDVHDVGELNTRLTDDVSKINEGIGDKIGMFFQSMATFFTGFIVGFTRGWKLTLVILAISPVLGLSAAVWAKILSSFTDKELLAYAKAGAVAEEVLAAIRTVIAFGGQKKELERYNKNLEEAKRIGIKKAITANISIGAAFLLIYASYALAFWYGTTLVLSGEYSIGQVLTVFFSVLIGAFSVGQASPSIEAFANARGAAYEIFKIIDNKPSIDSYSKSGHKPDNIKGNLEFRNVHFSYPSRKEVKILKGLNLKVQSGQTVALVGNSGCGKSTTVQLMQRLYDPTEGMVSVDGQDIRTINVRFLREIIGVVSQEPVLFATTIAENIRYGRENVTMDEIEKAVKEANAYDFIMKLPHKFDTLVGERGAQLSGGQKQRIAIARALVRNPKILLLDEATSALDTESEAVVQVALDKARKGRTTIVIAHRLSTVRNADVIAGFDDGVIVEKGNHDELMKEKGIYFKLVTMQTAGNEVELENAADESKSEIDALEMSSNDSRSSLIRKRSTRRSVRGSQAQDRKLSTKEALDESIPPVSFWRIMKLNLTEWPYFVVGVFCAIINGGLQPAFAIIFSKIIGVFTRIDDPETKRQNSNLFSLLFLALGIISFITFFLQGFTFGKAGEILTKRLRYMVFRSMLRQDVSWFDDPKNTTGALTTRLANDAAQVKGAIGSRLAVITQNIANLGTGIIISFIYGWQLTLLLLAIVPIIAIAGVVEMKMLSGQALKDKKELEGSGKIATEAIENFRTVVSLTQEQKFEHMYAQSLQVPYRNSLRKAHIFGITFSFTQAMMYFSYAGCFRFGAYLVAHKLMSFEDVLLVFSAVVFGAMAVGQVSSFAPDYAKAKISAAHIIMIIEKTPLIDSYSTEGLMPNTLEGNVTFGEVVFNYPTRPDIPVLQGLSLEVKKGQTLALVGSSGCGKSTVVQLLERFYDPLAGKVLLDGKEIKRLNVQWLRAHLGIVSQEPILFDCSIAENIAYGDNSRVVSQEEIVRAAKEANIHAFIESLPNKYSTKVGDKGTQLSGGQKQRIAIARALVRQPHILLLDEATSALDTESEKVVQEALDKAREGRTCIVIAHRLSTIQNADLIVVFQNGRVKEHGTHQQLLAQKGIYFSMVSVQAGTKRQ

Compound	harmlessness / toxicity on HEK-293 cells (HEK-293 cells)	cytotoxic effect on HEK-293 cells (HEK-293 cells; concentration range tested, more than 10 times its IC50, expressing or not ABCG2)	IC50 (P-gp/ABCB1)	inhibition at 2 μM (P-gp/ABCB1)	inhibition at 10 μM (P-gp/ABCB1)	cytotoxicity on HEK-293 cells (HEK-293 cells; up to 40 μM (40 times the IC50), expressing or not ABCG2)	cytotoxicity on HEK-293 cells (HEK-293 cells; at 40 times the IC50)	cytotoxic effect on HEK-293 cells (HEK-293 cells; up to 20 times its IC50, expressing or not ABCG2)	P-gp/ABCB1 IC50, μM (P-gp/ABCB1)	cytotoxic effect on HEK-293 cells (HEK-293 cells; concentration range tested, more than 80 times its IC50, expressing or not ABCG2)
CC(C)(C)OC(=O)NN(C(=O)N[C@@H](CCCCNC(=O)OCc1ccccc1)C(=O)OC(C)(C)C)c1ccccc1C(=O)OCc1ccccc1 [IA.1, tert-Butyl ester of (2S)-6-(benzyloxycarbonylamino)-2-[1-(2′-(benzyloxycarbonyl)phenyl)-2-(tert-butoxycarbonyl)hydrazino-carbonylamino]hexanoic acid]	harmlessness	no cytotoxic effect	≤ 0.5 µM	70 ± 10%	74 ± 1%	–	–	–	–	–
CC(C)(C)OC(=O)NN(C(=O)N[C@@H](CCCCNC(=O)OCc1ccccc1)C(=O)OC(C)(C)C)c1cccc(C(=O)OCc2ccccc2)c1 [IA.2, tert-Butyl ester of (2S)-6-(benzyloxycarbonylamino)-2-[1-(3′-(benzyloxycarbonyl)phenyl)-2-(tert-butoxycarbonyl)hydrazino-carbonylamino]hexanoic acid]	harmlessness	–	–	–	< 50%	absolutely not cytotoxic	–	–	–	–
CC(C)(C)OC(=O)N[C@H](CNN(CCCCCCNC(=O)OCc1ccccc1)C(=O)OC(C)(C)C)CC(=O)OCc1ccccc1 [IB.1, Benzyl ester of (3S)-4-[2-(6-benzyloxycarbonylaminohexyl)-2-tert-butoxycarbonylhydrazino]-3-tert-butoxycarbonylaminobutyric acid]	harmlessness	–	1 µM	70 ± 20%	63 ± 5%	–	relative cytotoxicity	no cytotoxic effect	micromolar or submicromolar	–
CC(C)(C)OC(=O)N[C@H](CNN(CCCCCCNC(=O)OCc1ccccc1)C(=O)OCc1ccccc1)CC(=O)OCc1ccccc1 [IB.11, Benzyl ester of (3S)-4-[2-benzyloxycarbonyl-2-(6-benzyloxycarbonylaminohexyl)hydrazino]-3-tert-butoxycarbonyl-aminobutyric acid]	harmlessness	–	0.7 ± 0.1 µM	–	–	–	–	–	micromolar or submicromolar	no cytotoxic effect
